Data taken from ChEMBL document CHEMBL1641543, “Synthesis and topoisomerase II inhibitory and cytotoxic activity of oxiranylmethoxy- and thiiranylmethoxy-chalcone derivatives” (Bioorg Med Chem Lett, 2011).
pIC50: −log10 of the molar value.

Key:
[1] = molecular target: T1, DNA topoisomerase 1 (Homo sapiens) (UniProt P11387); test: Inhibition of human topoisomerase 1-mediated relaxation of supercoiled pBR322 at 100 uM by agarose gel electrophoresis
T1 sequence (whole entry): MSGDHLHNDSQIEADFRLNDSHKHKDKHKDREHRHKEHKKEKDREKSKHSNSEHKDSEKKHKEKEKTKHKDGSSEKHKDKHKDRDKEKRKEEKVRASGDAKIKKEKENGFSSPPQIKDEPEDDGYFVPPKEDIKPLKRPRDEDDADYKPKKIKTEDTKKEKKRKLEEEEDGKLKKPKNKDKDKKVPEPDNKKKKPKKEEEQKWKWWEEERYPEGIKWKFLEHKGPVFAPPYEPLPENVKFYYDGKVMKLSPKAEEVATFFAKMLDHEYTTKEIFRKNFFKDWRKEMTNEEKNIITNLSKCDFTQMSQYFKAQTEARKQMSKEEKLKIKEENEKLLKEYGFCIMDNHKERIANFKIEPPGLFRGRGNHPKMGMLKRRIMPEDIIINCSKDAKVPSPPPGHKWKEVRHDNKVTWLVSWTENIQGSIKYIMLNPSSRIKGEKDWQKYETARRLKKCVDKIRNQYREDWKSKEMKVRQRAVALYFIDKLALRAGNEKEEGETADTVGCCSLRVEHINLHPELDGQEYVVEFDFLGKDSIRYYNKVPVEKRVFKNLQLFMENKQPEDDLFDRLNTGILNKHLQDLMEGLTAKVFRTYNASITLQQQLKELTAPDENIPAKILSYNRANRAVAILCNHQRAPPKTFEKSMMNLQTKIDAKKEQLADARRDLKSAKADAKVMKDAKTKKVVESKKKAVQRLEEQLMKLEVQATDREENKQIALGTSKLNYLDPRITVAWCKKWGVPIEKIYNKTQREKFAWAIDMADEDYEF

[2] = system: DU-145; test: Cytotoxicity against human DU145 cells by MTT assay; type: functional, cell-based
[3] = system: HCT-15; test: Cytotoxicity against human HCT15 cells by MTT assay; type: functional, cell-based
[4] = system: MCF7; test: Cytotoxicity against human MCF7 cells by MTT assay; type: functional, cell-based
[5] = molecular target: DNA topoisomerase 2-alpha (Homo sapiens) (UniProt P11388); test: Inhibition of human topoisomerase 2-mediated relaxation of supercoiled pBR322 at 20 uM by agarose gel electrophoresis
[6] = system: K562; test: Cytotoxicity against human K562 cells by MTT assay; type: functional, cell-based
[7] = molecular target: DNA topoisomerase 2-alpha (Homo sapiens) (UniProt P11388); test: Inhibition of human topoisomerase 2-mediated relaxation of supercoiled pBR322 at 100 uM by agarose gel electrophoresis

Sequence of DNA topoisomerase 2-alpha (Homo sapiens) (P11388 whole entry): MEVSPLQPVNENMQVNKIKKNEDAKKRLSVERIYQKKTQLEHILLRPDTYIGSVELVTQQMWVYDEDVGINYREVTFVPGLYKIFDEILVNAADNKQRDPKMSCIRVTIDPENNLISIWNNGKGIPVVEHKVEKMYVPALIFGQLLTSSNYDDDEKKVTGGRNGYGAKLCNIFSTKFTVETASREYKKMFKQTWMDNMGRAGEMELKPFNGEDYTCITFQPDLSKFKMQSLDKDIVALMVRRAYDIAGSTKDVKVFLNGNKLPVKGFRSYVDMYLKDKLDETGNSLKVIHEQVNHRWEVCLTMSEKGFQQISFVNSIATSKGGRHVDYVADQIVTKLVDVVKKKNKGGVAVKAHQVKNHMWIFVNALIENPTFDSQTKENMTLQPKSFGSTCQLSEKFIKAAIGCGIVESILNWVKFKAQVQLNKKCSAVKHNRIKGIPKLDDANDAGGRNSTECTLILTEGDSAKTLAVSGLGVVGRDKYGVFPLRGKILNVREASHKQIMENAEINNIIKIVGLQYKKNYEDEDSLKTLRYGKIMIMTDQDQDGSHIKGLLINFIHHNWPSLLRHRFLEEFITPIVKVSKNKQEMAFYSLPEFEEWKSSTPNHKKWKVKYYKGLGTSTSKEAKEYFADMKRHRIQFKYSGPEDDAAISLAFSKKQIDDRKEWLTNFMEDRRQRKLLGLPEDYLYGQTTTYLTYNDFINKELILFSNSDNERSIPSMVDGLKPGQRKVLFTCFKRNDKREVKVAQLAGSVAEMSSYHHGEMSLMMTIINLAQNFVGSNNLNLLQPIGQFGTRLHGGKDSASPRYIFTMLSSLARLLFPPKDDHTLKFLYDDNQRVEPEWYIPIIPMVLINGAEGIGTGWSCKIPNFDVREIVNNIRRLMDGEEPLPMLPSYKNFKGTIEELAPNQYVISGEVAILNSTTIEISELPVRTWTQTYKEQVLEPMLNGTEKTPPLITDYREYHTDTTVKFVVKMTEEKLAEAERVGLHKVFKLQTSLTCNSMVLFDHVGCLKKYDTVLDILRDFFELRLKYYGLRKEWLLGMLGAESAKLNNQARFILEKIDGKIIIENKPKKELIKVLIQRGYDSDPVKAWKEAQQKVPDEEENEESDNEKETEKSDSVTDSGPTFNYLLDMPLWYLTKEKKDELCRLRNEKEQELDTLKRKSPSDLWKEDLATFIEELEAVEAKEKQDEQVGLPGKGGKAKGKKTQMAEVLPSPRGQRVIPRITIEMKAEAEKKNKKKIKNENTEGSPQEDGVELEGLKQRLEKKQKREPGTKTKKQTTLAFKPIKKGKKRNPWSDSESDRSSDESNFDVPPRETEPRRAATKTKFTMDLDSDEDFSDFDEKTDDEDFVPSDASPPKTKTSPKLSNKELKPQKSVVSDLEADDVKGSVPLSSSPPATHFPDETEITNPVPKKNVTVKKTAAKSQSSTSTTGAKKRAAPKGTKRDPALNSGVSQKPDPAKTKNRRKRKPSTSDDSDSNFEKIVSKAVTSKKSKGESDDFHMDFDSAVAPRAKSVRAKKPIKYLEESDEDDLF

Structure (SMILES)	inhibition [1]	inhibition [5]	inhibition [7]	pIC50 [2]	pIC50 [3]	pIC50 [4]	pIC50 [6]
COc1ccc(/C=C/C(=O)c2ccc(OCC3CS3)cc2)cc1 (stereo not drawn)	0%	14.8%	31.6%	4.71	5.00	4.63	< 4.30
COc1ccc(/C=C/C(=O)c2ccc(OCC3CS3)cc2OCC2CS2)cc1 (stereo not drawn)	0%	20.8%	61%	5.97	6.64	6.31	5.12
COc1cccc2c1C(=O)c1c(O)c3c(c(O)c1C2=O)C[C@@](O)(C(=O)CO)C[C@@H]3O[C@H]1C[C@H](N)[C@H](O)[C@H](C)O1 [DOXORUBICIN]				5.76	5.90		5.88
O=C(/C=C/c1ccc(OCC2CS2)cc1)c1ccc(OCC2CS2)cc1 (stereo not drawn)	0%	18%	34.6%	< 4.30	4.91	4.66	4.87
COc1ccc(C(=O)/C=C/c2ccc(OCC3CS3)cc2)cc1 (stereo not drawn)	0%	15.5%	31.6%	< 4.30	4.55	4.94	4.49
CC[C@@]1(O)C(=O)OCc2c1cc1n(c2=O)Cc2cc3ccccc3nc2-1 [CAMPTOTHECIN]				6.21	6.10	5.61	6.23

Second part, led by results:

inhibition [1]	inhibition [5]	inhibition [7]	Structure (SMILES)	pIC50 [2]	pIC50 [3]	pIC50 [4]	pIC50 [6]
0%	14%	28.5%	COc1cc(OCC2CO2)ccc1/C=C/C(=O)c1ccc(OCC2CO2)cc1 (stereo not drawn)	< 4.30	5.32	5.44	4.86
0%	17.6%	28.8%	COc1ccc(/C=C/C(=O)c2ccc(OCC3CO3)cc2)cc1 (stereo not drawn)	4.36	4.57	4.93	4.55
0%	15.2%	22%	COc1ccc(C(=O)/C=C/c2ccc(OCC3CO3)cc2)cc1 (stereo not drawn)	4.43	4.52	4.96	4.48
0%	14%	30.1%	COc1ccc(C(=O)/C=C/c2ccc(OCC(O)CCl)cc2)cc1 (stereo not drawn)	< 4.30	4.69	4.54	4.54
0%	19.3%	33.5%	O=C(/C=C/c1ccc(OCC2CO2)cc1)c1ccc(OCC2CO2)cc1 (stereo not drawn)	< 4.30	4.73	5.41	5.14
	38%	61.9%	COc1cc([C@@H]2c3cc4c(cc3[C@@H](O[C@@H]3O[C@@H]5CO[C@@H](C)O[C@H]5[C@H](O)[C@H]3O)[C@H]3COC(=O)[C@H]23)OCO4)cc(OC)c1O [ETOPOSIDE]	5.84	5.69	5.70	5.92
0%	16.3%	34.9%	COc1ccc(/C=C/C(=O)c2ccc(OCC(O)CCl)cc2)cc1 (stereo not drawn)	< 4.30	4.69	4.73	4.79
